Entries after “also recorded” stand apart in the source; their conditions may differ. Where two headings read alike, the source gives them in different places.
Columns and labels:
[1] = tested on: Hep3B human hepatoma cell line; assay: 2D cell viability; type: cell-based; settings: 72 h, read-out: IC50, 2D cultured Hep3B cells in 96-well plates
[2] = tested on: Hep3B cells
[3] = tested on: humans; settings: previously categorized; ref Xu et al. 2008; cited from earlier work
[4] = tested on: Hep3B cells; assay: Metabolism-induced toxicity on DataChip/MetaChip; settings: for Change of toxicity in All Mix vs. parent compound: All Mix vs. no enzyme, 3D Hep3B on chip; for CC50: Homo sapiens, Hep3B
[5] = read-out: 1000* Human Cmax; 1000-fold in vivo human Cmax; cited from earlier work
[6] = in vitro; settings: human

Row | Structure (SMILES) | IC50 ([1]; Homo sapiens, Hep3B) | DILI category [3] | Cmax [5] | also measured
1 | CC(=O)Nc1ccc(O)cc1 [Acetaminophen] | 300 µM | P1 | – | Change of toxicity in P450 Mix vs. parent compound [2]: metabolism-induced toxicity; Change of toxicity in All Mix vs. parent compound [4]: metabolism-induced toxicity
2 | CCc1oc2ccccc2c1C(=O)c1cc(Br)c(O)c(Br)c1 [Benzbromarone] | 58 ± 22 µM | P1 | – | –
3 | COc1ccccc1Oc1c(NS(=O)(=O)c2ccc(C(C)(C)C)cc2)nc(-c2ncccn2)nc1OCCO [Bosentan] | 55 ± 20 µM | P1 | – | –
4 | O=C1CC2(CCCC2)CC(=O)N1CCCCN1CCN(c2ncccn2)CC1 [Buspirone] | 170 ± 74 µM | N1 | – | –
5 | C[C@@](Cc1ccc(O)c(O)c1)(NN)C(=O)O [Carbidopa] | 46 ± 28 µM | N1 | 660 nM | Change of toxicity in P450 Mix vs. parent compound [2]: activated; Change of toxicity in All Mix vs. parent compound [4]: augmented toxicity
6 | CCCNC(=O)NS(=O)(=O)c1ccc(Cl)cc1 [Chlorpropamide] | 300 µM | P2 | 123000 nM | –
7 | O=C(O)Cc1ccccc1Nc1c(Cl)cccc1Cl [Diclofenac] | 120 ± 51 µM | P2 | – | –
8 | C[C@]12CC[C@@H]3c4ccc(O)cc4CC[C@H]3[C@@H]1CC[C@@H]2O [Estradiol] | 53 ± 20 µM | N3 | 0.1 nM | –
9 | CC(Cc1ccc(O)cc1)NCC(O)c1cc(O)cc(O)c1 (stereo not shown) [Fenoterol] | 300 µM | P2 | 0.6 nM | IC50 [6]: 290 ± 140 µM; CC50 ([4]; read-out: IC50, 3D cultured Hep3B cells on the Data/MetaChip, All Mix): 1200 µM; CC50 ([4]; read-out: IC50, 3D cultured Hep3B cells on the Data/MetaChip, HLM): 1200 µM; CC50 ([4]; read-out: IC50, 3D cultured Hep3B cells on the Data/MetaChip, No Enzyme): 1200 µM
10 | CNCCC(Oc1ccc(C(F)(F)F)cc1)c1ccccc1 (stereo not shown) [Fluoxetine] | – | N3 | 97 nM | –
11 | CC(C)C(=O)Nc1ccc([N+](=O)[O-])c(C(F)(F)F)c1 [Flutamide] | 45 ± 18 µM | P2 | – | Change of toxicity in All Mix vs. parent compound [4]: statistically less toxicity
12 | CN(C)CCCN1c2ccccc2CCc2ccccc21 [Imipramine] | 5 ± 2 µM | P2 | – | –
13 | CC(CCc1ccccc1)NCC(O)c1ccc(O)c(C(N)=O)c1 (stereo not shown) [Labetalol] | 150 ± 34 µM | P2 | – | –
14 | Cc1cccc(Nc2ccccc2C(=O)O)c1C [Mefenamic acid] | 260 ± 74 µM | P2 | – | Change of toxicity in All Mix vs. parent compound [4]: statistically less toxicity
15 | CCCOc1ccc2[nH]c(NC(=O)OC)nc2c1 [Oxybendazole] | – | O1 | 30 nM | IC50 ([1]; 2D monolayer, no enzyme, MTT): 24 ± 18 µM; Change of toxicity in All Mix vs. parent compound [4]: augmented toxicity
16 | Nc1ccc(/N=N/c2ccccc2)c(N)n1 [Phenazopyridine] | 55 ± 13 µM | P2 | 124 nM | –
17 | Cc1ccc(N(CC2=NCCN2)c2cccc(O)c2)cc1 [Phentolamine] | 48 ± 9 µM | – | – | –
18 | CN(C)CCCN1c2ccccc2Sc2ccccc21 [Promazine] | 21 ± 3 µM | N3 | 490 nM | –
19 | Cc1nc2n(c(=O)c1CCN1CCC(c3noc4cc(F)ccc34)CC1)CCCC2 [Risperidone] | – | P2 | – | –
20 | CC1=C(CC(=O)O)c2cc(F)ccc2/C1=C\c1ccc([S+](C)[O-])cc1 (stereo not shown) [Sulindac] | 300 µM | P2 | – | Change of toxicity in All Mix vs. parent compound [4]: statistically less toxicity; also recorded: increased IC50
21 | O=c1n(CCCN2CCN(c3cccc(Cl)c3)CC2)nc2ccccn12 [Trazodone] | – | P2 | – | –

— publication PMC5867211 (Archives of toxicology, 2017)
